Assay results taken from PubChem BioAssay AID1963858 (Molecular Pharmacology Branch, DTP, NCI, 2024).

Tested on: HOP-62 multicell spheroids with HUVEC/MSC, viability
Test: Anticancer human tumor HOP-62 cell line growth inhibition [KRAS2];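 note: viability read after a week of compound exposure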;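 for viability, T/C: 100% = DMSO vehicle-treated spheroids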
Conditions: for IC50: curve of first compound; for viability, T/C: stronger effect = lower value
Procedure, shortened: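 Combination screen of spheroid viability in tumor-cell co-cultures with endothelial (HUVEC) and mesenchymal stem cell stroma. Each agent was tested in half-log dilutions, topping at clinical Cmax or at 10 microM without a known Cmax.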

[1] = second compound 0.1 µM, first compound 0.000316 µM
[2] = second compound 0.1 µM, first compound 0.001 µM
[3] = second compound 0.1 µM, first compound 0.00316 µM
[4] = second compound 0.1 µM, first compound 0.01 µM
[5] = second compound 0.1 µM, first compound 0.0316 µM
[6] = second compound 0.316 µM, first compound 0.000316 µM
[7] = second compound 0.316 µM, first compound 0.001 µM
[8] = second compound 0.316 µM, first compound 0.00316 µM
[9] = second compound 0.316 µM, first compound 0.01 µM
[10] = second compound 0.316 µM, first compound 0.0316 µM
[11] = second compound 1 µM, first compound 0.000316 µM
[12] = second compound 1 µM, first compound 0.001 µM
[13] = second compound 1 µM, first compound 0.00316 µM
[14] = second compound 1 µM, first compound 0.01 µM
[15] = second compound 1 µM, first compound 0.0316 µM
[16] = second compound 3.16 µM, first compound 0.000316 µM
[17] = second compound 3.16 µM, first compound 0.001 µM
[18] = second compound 3.16 µM, first compound 0.00316 µM
[19] = second compound 3.16 µM, first compound 0.01 µM
[20] = second compound 3.16 µM, first compound 0.0316 µM
[21] = second compound 10 µM, first compound 0.000316 µM
[22] = second compound 10 µM, first compound 0.001 µM
[23] = second compound 10 µM, first compound 0.00316 µM
[24] = second compound 10 µM, first compound 0.01 µM
[25] = second compound 10 µM, first compound 0.0316 µM
[26] = second compound 0.1 µM, first compound 0.1 µM
[27] = second compound 0.316 µM, first compound 0.1 µM
[28] = second compound 1 µM, first compound 0.1 µM
[29] = second compound 3.16 µM, first compound 0.1 µM
[30] = second compound 10 µM, first compound 0.1 µM
[31] = second compound 0.1 µM, first compound 0.316 µM
[32] = second compound 0.1 µM, first compound 1 µM
[33] = second compound 0.1 µM, first compound 3.16 µM
[34] = second compound 0.1 µM, first compound 10 µM
[35] = second compound 0.316 µM, first compound 0.316 µM
[36] = second compound 0.316 µM, first compound 1 µM
[37] = second compound 0.316 µM, first compound 3.16 µM
[38] = second compound 0.316 µM, first compound 10 µM
[39] = second compound 1 µM, first compound 0.316 µM
[40] = second compound 1 µM, first compound 1 µM
[41] = second compound 1 µM, first compound 3.16 µM
[42] = second compound 1 µM, first compound 10 µM
[43] = second compound 3.16 µM, first compound 0.316 µM
[44] = second compound 3.16 µM, first compound 1 µM
[45] = second compound 3.16 µM, first compound 3.16 µM
[46] = second compound 3.16 µM, first compound 10 µM
[47] = second compound 10 µM, first compound 0.316 µM
[48] = second compound 10 µM, first compound 1 µM
[49] = second compound 10 µM, first compound 3.16 µM
[50] = second compound 10 µM, first compound 10 µM

Compound CC(=O)Nc1cccc(-n2c(=O)n(C3CC3)c(=O)c3c(Nc4ccc(I)cc4F)n(C)c(=O)c(C)c32)c1 + CC1OCC2(CCN(c3cnc(Sc4ccnc(N)c4Cl)c(N)n3)CC2)C1N has an IC50 (second compound 0.1 µM) of 2.14 nM, an IC50 (second compound 0.316 µM) of 0.877 nM and an IC50 (second compound 1 µM) of 0.167 nM. It also gave an IC50 (second compound 3.16 µM) of less than 0.1 nM, an IC50 (second compound 10 µM) of less than 0.1 nM and a viability, T/C (second compound 0.1 µM, first compound 0.0001 µM) of 93.8%. The viability, T/C [1] was 86.2%, the viability, T/C [2] was 67.9% and the viability, T/C [3] was 41%. For the same compound, the viability, T/C [4] was 29.1%, the viability, T/C [5] was 28.5% and the viability, T/C (second compound 0.316 µM, first compound 0.0001 µM) was 79.8%. It also gave a viability, T/C [6] of 64.2%, a viability, T/C [7] of 49.8% and a viability, T/C [8] of 33.8%. It also gave a viability, T/C [9] of 22.9%, a viability, T/C [10] of 25.8% and a viability, T/C (second compound 1 µM, first compound 0.0001 µM) of 55.2%. For the same compound, the viability, T/C [11] was 42.8%, the viability, T/C [12] was 33.5% and the viability, T/C [13] was 21.5%. For the same compound, the viability, T/C [14] was 20.2%, the viability, T/C [15] was 21.5% and the viability, T/C (second compound 3.16 µM, first compound 0.0001 µM) was 25.8%. The viability, T/C [16] was 16.9%, the viability, T/C [17] was 14.4% and the viability, T/C [18] was 17.7%. For the same compound, the viability, T/C [19] was 15.4%, the viability, T/C [20] was 15.7% and the viability, T/C (second compound 10 µM, first compound 0.0001 µM) was 20.2%. The viability, T/C [21] was 14.3%, the viability, T/C [22] was 15.3% and the viability, T/C [23] was 14.2%. For the same compound, the viability, T/C [24] was 12.4% and the viability, T/C [25] was 13.7%.

In the case of CC(C)n1nc(-c2ccc3oc(N)nc3c2)c2c(N)ncnc21 + CC1OCC2(CCN(c3cnc(Sc4ccnc(N)c4Cl)c(N)n3)CC2)C1N, the IC50 (second compound 0.1 µM) is reported as 1.56 nM, the IC50 (second compound 0.316 µM) is reported as 0.678 nM and the IC50 (second compound 1 µM) is reported as 0.392 nM. For the same compound, the IC50 (second compound 3.16 µM) was less than 0.316 nM, the IC50 (second compound 10 µM) was less than 0.316 nM and the viability, T/C [1] was 76.5%. For the same compound, the viability, T/C [2] was 65.1%, the viability, T/C [3] was 25.9% and the viability, T/C [4] was 16.4%. For the same compound, the viability, T/C [5] was 12.4%, the viability, T/C [26] was 8.07% and the viability, T/C [6] was 69.2%. For the same compound, the viability, T/C [7] was 40.2%, the viability, T/C [8] was 21.3% and the viability, T/C [9] was 12%. It also gave a viability, T/C [10] of 10%, a viability, T/C [27] of 7.36% and a viability, T/C [11] of 54.4%. The viability, T/C [12] was 30.5%, the viability, T/C [13] was 11.9% and the viability, T/C [14] was 8.81%. It also gave a viability, T/C [15] of 8.66%, a viability, T/C [28] of 6.23% and a viability, T/C [16] of 26.6%. For the same compound, the viability, T/C [17] was 22.4%, the viability, T/C [18] was 10.6% and the viability, T/C [19] was 7.28%. It also gave a viability, T/C [20] of 6.71%, a viability, T/C [29] of 4.89% and a viability, T/C [21] of 22.5%. The viability, T/C [22] was 18.2%, the viability, T/C [23] was 10.6% and the viability, T/C [24] was 7%. For the same compound, the viability, T/C [25] was 5.54% and the viability, T/C [30] was 4.55%.

With COc1cc(Nc2ncc3c(n2)-c2ccc(Cl)cc2C(c2c(F)cccc2OC)=NC3)ccc1C(=O)O + CC1OCC2(CCN(c3cnc(Sc4ccnc(N)c4Cl)c(N)n3)CC2)C1N the IC50 (second compound 0.1 µM) was 183 nM, the IC50 (second compound 0.316 µM) was 72.8 nM and the IC50 (second compound 1 µM) was less than 31.6 nM. The IC50 (second compound 3.16 µM) was less than 31.6 nM, the IC50 (second compound 10 µM) was less than 31.6 nM and the viability, T/C [5] was 61.5%. For the same compound, the viability, T/C [26] was 53.9%, the viability, T/C [31] was 45.7% and the viability, T/C [32] was 39%. For the same compound, the viability, T/C [33] was 26.9%, the viability, T/C [34] was 20.1% and the viability, T/C [10] was 56%. It also gave a viability, T/C [27] of 47.8%, a viability, T/C [35] of 38.5% and a viability, T/C [36] of 31.3%. It also gave a viability, T/C [37] of 22%, a viability, T/C [38] of 16.3% and a viability, T/C [15] of 34.6%. For the same compound, the viability, T/C [28] was 29.7%, the viability, T/C [39] was 27.1% and the viability, T/C [40] was 26.1%. For the same compound, the viability, T/C [41] was 21.1%, the viability, T/C [42] was 15.4% and the viability, T/C [20] was 21.9%. It also gave a viability, T/C [29] of 18.9%, a viability, T/C [43] of 22.2% and a viability, T/C [44] of 21.7%. The viability, T/C [45] was 14.7%, the viability, T/C [46] was 11.4% and the viability, T/C [25] was 22.7%. It also gave a viability, T/C [30] of 17.1%, a viability, T/C [47] of 18.4% and a viability, T/C [48] of 17.4%. For the same compound, the viability, T/C [49] was 16.2% and the viability, T/C [50] was 10.7%.

COc1cc2nccc(Oc3ccc(NC(=O)C4(C(=O)Nc5ccc(F)cc5)CC4)cc3)c2cc1OC + CC1OCC2(CCN(c3cnc(Sc4ccnc(N)c4Cl)c(N)n3)CC2)C1N was tested, and the IC50 (second compound 0.1 µM) was 7770 nM, the IC50 (second compound 0.316 µM) was 2260 nM and the IC50 (second compound 1 µM) was 31.6 nM. It also gave an IC50 (second compound 3.16 µM) of less than 31.6 nM, an IC50 (second compound 10 µM) of less than 31.6 nM and a viability, T/C [5] of 88.3%. It also gave a viability, T/C [26] of 83%, a viability, T/C [31] of 88% and a viability, T/C [32] of 91.1%. For the same compound, the viability, T/C [33] was 77.8%, the viability, T/C [34] was 42.2% and the viability, T/C [10] was 81.8%. It also gave a viability, T/C [27] of 67.3%, a viability, T/C [35] of 73.4% and a viability, T/C [36] of 84.1%. For the same compound, the viability, T/C [37] was 38.9%, the viability, T/C [38] was 33.5% and the viability, T/C [15] was 43.5%. For the same compound, the viability, T/C [28] was 50.5%, the viability, T/C [39] was 49.4% and the viability, T/C [40] was 52.7%. The viability, T/C [41] was 19%, the viability, T/C [42] was 27.5% and the viability, T/C [20] was 33.2%. It also gave a viability, T/C [29] of 24.1%, a viability, T/C [43] of 16.4% and a viability, T/C [44] of 17%. It also gave a viability, T/C [45] of 15.9%, a viability, T/C [46] of 9.51% and a viability, T/C [25] of 30.8%. It also gave a viability, T/C [30] of 19.3%, a viability, T/C [47] of 20.4% and a viability, T/C [48] of 16.8%. The viability, T/C [49] was 11.6% and the viability, T/C [50] was 16.7%.
